# Values joined by “and” are separate entries in the source; they are usually repeats but may differ in a detail not shown here. Equal entries are not always repeated.
# How the values were obtained:
# [1] = tested on: P. falciparum NF54 asexual parasites; test: asexual parasite growth inhibition assay (SYBR Green); assay type: cell-based, Plasmodium falciparum; conditions: 72 h, mean ± SD, n = 3
# Method: (§1) Asexual parasites of P. falciparum strain NF54 were cultured as described previously. Briefly, parasites were maintained in RPMI 1640 medium containing 10% positive human serum + erythrocytes (5% haematocrit), 2.5% sodium bicarbonate and 11 µg/mL gentamicin at 37 °C with 5% CO2, 5% O2 and 90% N2. Gametocyte cultures were set up at 0.1% parasitaemia and on days 9–10 treated with 50 mM N-acetylglucosamine (NAG) to block further asexual growth. Stage III–V gametocytes were isolated by Percoll density gradient centrifugation on day 12 and returned to culture for 24 h before being used in the assay. At the time of the assay over 73% of the gametocytes were stage IV or V (Additional file 1). HepG2 cells (ATCC, cat. no. 77400) were cultured in 175-cm^2 tissue culture flasks with 30 ml growth medium at 37 °C in a 5% CO2 and 5% O2 humidified atmosphere. Growth medium was made with Dulbecco’s Modified Eagle Medium with 10% fetal bovine serum (FBS). Growth medium was replaced every other day and cells were passaged at 75% confluence.
# Drug activity on asexual stage parasites was tested using a SYBR Green assay as described previously. Briefly, 2.5 μL/well complete culture medium was dispensed into each well of 1536-well plates using the Multidrop Combi followed by 23 nL compound transferring using the NX-TR Pintool. Parasites were diluted to 0.5% parasitaemia in complete culture medium with 2% haematocrit and drugs diluted in DMSO (≤0.5%). The pre-diluted parasites were dispensed into a 1536-well plate (2.5 μL/well). After 72 h incubation under the standard culture conditions, 5 μL/well of lysis buffer containing SYBR Green I was added to the parasite culture and incubated for 30 min at room temperature. The fluorescence of each well was measured in a fluorescence detection mode (Ex = 490 nm, Em = 520 nm) using a ViewLux plate reader (PerkinElmer).
# HepG2 cells = test: HepG2 cytotoxicity assay (AlamarBlue); assay type: cell-based, human; conditions: HepG2 cells, 72 h, AlamarBlue, up to 46 µM
# Method: as §1
# Drug activity on HepG2 was tested using an AlamarBlue assay as previously described. Briefly, 5 μL/well of HepG2 cells were dispensed with a seeding density of 1000 cells/well using the Multidrop Combi. 23 nL compound was transferred using the NX-TR Pintool. After 72 h incubation under the standard culture condition, 5 μL/well of 2X AlamarBlue dye was added to the cells, the plates were incubated for 2 h at 37 °C with 5% CO2 and then were read in a fluorescence detection mode (Ex = 525 nm, Em = 598 nm) on a ViewLux plate reader.
# 468 human kinases = test: human kinase profiling (Kinome scan, DiscoverX), whole panel; assay type: binding
# [2] = molecular target: T1, ABL1(Q252H)-phosphorylated (Homo sapiens, UniProt P00519, Q252H); test: Kinome scan profile; assay type: binding; conditions: 10 μM
# T1 construct: purchased DiscoverX (KINOMEscan)
# CDK4-cyclinD3 = molecular target: T2, CDK4-cyclinD3 (Homo sapiens, UniProt P11802); test: Kinome scan profile; assay type: binding; conditions: 10 μM
# T2 construct: purchased DiscoverX (KINOMEscan)
# ERBB3 = molecular target: T3, ERBB3 (Homo sapiens, UniProt P21860); test: Kinome scan profile; assay type: binding; conditions: 10 μM
# T3 construct: purchased DiscoverX (KINOMEscan)
# T3 sequence (P21860 20-1342): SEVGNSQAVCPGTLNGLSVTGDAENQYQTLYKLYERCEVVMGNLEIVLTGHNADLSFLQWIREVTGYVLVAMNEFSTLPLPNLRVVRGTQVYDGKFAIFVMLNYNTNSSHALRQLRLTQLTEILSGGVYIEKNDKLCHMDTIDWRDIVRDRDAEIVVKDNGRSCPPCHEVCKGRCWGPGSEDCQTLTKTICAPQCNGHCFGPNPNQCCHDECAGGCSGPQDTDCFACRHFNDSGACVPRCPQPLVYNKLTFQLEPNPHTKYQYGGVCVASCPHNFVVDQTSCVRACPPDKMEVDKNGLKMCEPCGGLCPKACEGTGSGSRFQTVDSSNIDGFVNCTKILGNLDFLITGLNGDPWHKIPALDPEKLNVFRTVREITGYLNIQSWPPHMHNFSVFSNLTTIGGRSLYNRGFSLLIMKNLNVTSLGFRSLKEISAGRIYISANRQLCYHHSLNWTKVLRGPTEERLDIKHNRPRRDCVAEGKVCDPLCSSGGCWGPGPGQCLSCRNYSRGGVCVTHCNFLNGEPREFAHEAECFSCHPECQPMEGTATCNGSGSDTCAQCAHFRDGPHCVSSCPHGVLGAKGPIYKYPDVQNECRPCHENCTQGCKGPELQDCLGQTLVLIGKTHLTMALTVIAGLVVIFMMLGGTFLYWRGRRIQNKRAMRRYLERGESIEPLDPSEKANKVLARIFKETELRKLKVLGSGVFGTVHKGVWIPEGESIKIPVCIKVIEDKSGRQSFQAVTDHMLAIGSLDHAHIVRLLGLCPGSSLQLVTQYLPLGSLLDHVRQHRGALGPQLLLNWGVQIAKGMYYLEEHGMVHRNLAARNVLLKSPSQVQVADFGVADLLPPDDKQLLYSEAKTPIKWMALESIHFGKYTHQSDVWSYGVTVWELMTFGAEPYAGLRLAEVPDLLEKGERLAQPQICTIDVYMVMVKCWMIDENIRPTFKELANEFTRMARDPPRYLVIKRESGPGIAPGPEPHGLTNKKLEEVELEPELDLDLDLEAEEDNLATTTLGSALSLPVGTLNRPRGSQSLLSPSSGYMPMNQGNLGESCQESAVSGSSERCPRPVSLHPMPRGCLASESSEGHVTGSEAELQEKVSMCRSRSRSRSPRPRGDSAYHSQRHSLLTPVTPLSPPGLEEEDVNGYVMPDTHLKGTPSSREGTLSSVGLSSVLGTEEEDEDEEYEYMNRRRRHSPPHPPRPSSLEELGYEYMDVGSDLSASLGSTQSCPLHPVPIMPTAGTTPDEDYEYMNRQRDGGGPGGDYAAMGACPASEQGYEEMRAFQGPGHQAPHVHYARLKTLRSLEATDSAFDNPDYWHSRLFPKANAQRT
# TRKA = molecular target: T4, TRKA (Homo sapiens, UniProt P04629); test: Kinome scan profile; assay type: binding; conditions: 10 μM
# T4 construct: purchased DiscoverX (KINOMEscan)
# T4 sequence (P04629 33-796): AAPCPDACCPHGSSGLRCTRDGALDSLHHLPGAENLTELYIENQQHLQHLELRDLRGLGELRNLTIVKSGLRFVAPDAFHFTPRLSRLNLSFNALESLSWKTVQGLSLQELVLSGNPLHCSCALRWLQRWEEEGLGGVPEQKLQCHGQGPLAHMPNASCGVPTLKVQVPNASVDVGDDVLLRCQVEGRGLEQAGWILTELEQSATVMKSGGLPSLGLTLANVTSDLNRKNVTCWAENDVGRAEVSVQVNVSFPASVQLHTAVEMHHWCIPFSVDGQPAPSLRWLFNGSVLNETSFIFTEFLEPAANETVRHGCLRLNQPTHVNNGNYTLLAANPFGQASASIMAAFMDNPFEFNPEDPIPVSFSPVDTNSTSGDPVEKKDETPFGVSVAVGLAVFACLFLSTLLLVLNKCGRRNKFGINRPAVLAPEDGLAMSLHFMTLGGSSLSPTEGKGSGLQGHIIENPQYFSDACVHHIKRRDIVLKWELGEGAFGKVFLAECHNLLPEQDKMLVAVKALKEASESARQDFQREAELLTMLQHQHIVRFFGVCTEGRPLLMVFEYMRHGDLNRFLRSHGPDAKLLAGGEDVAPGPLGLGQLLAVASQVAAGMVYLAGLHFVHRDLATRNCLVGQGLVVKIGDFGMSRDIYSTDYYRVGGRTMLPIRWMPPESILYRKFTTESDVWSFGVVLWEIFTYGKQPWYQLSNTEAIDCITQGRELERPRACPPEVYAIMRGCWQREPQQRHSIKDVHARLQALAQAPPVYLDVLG
# ALK(C1156Y) = molecular target: T5, ALK(C1156Y) (Homo sapiens, UniProt Q9UM73, C1156Y); test: Kinome scan profile; assay type: binding; conditions: 10 μM
# T5 construct: purchased DiscoverX (KINOMEscan)
# T5 sequence (Q9UM73 19-1620 C1156Y): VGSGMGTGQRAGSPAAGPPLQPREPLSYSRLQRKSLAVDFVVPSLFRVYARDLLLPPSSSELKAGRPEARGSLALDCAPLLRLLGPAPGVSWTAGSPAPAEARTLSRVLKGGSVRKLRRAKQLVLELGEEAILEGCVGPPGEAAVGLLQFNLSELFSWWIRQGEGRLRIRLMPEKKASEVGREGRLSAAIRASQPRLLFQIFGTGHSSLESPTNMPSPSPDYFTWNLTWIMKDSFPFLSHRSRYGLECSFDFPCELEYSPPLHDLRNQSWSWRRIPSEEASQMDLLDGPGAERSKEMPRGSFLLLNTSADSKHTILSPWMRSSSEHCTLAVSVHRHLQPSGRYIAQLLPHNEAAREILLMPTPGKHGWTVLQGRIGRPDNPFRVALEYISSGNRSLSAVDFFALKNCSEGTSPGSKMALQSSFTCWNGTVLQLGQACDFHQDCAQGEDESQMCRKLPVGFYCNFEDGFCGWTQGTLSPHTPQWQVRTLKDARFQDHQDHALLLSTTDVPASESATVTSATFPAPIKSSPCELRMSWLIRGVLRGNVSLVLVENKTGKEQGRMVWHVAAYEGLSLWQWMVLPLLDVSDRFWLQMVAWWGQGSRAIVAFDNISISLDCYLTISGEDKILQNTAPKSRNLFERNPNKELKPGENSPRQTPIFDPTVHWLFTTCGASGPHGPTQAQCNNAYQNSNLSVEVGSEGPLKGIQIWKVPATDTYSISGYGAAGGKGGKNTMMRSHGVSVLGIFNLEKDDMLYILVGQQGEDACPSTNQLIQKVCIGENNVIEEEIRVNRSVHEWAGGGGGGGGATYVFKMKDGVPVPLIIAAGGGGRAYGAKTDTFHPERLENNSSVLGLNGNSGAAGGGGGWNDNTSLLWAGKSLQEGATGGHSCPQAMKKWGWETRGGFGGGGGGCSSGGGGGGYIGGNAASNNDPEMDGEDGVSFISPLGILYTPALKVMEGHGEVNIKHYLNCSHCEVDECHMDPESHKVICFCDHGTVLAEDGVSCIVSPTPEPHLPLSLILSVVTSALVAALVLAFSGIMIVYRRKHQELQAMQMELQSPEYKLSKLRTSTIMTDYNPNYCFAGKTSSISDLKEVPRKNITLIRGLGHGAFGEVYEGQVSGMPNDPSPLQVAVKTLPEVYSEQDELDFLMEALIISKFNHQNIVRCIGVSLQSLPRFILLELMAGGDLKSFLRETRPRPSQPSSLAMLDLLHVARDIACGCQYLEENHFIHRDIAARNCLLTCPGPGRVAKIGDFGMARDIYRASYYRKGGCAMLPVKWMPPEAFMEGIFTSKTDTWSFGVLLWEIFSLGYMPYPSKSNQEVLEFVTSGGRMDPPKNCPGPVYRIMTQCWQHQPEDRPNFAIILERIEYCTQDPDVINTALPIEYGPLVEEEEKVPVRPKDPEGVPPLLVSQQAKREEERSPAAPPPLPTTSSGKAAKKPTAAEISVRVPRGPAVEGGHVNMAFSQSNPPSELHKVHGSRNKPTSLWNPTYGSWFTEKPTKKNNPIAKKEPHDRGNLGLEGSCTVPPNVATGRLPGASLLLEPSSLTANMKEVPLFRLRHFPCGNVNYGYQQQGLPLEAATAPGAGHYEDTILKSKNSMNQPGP
# MYLK = molecular target: T6, MYLK (Homo sapiens, UniProt Q15746); test: Kinome scan profile; assay type: binding; conditions: 10 μM
# T6 construct: purchased DiscoverX (KINOMEscan)
# PRKG2 = molecular target: T7, PRKG2 (Homo sapiens, UniProt Q13237); test: Kinome scan profile; assay type: binding; conditions: 10 μM
# T7 construct: purchased DiscoverX (KINOMEscan)
# T7 sequence (Q13237 1-762): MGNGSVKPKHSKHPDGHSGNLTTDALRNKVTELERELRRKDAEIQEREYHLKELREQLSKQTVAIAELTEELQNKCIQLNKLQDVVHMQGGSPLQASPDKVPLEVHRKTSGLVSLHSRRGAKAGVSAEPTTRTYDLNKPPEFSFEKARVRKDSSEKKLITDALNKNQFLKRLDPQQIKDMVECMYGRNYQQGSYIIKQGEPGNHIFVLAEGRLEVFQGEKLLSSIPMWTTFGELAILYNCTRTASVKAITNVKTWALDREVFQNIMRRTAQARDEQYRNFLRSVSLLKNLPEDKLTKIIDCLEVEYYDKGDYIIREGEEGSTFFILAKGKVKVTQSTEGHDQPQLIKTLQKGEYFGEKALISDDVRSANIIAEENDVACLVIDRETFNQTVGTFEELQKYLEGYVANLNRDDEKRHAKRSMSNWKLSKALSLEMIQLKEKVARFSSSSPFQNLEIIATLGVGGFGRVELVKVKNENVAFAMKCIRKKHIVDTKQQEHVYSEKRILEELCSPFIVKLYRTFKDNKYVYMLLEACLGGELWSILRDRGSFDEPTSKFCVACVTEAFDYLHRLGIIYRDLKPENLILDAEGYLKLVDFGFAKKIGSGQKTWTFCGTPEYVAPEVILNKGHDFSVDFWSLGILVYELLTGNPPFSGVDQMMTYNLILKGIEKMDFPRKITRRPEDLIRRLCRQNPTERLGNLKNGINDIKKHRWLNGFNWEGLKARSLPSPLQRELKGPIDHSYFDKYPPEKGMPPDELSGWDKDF
# KIT(A829P) = molecular target: T8, KIT(A829P) (Homo sapiens, UniProt P10721, A829P); test: Kinome scan profile; assay type: binding; conditions: 10 μM
# T8 construct: purchased DiscoverX (KINOMEscan)
# T8 sequence (P10721 26-976 A829P): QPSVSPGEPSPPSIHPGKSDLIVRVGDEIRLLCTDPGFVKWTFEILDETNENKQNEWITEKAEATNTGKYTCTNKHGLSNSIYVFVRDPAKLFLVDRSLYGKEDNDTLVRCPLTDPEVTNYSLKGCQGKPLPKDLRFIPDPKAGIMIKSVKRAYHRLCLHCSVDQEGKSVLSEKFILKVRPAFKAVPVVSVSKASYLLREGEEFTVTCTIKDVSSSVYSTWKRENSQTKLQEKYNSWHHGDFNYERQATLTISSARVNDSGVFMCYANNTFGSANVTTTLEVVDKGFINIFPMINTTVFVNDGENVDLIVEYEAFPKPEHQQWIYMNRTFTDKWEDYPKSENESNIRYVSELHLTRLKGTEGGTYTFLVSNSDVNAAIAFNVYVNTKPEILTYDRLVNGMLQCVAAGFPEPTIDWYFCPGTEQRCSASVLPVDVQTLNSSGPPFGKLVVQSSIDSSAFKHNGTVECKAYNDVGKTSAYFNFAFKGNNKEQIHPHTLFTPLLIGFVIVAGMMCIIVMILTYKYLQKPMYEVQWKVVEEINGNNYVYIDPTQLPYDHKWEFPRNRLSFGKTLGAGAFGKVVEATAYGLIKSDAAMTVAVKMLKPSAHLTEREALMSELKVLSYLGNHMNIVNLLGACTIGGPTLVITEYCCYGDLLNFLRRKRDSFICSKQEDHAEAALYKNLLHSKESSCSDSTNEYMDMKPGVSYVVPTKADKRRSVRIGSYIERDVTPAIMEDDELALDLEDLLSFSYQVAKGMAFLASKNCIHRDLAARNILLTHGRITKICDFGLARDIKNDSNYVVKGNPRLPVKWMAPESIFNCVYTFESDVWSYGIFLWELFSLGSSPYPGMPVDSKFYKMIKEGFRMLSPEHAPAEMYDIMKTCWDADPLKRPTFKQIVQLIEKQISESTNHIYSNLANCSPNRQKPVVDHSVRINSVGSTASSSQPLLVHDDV
# MST4 = molecular target: T9, MST4 (Homo sapiens, UniProt Q9P289); test: Kinome scan profile; assay type: binding; conditions: 10 μM
# T9 construct: purchased DiscoverX (KINOMEscan)
# T9 sequence (Q9P289 whole entry): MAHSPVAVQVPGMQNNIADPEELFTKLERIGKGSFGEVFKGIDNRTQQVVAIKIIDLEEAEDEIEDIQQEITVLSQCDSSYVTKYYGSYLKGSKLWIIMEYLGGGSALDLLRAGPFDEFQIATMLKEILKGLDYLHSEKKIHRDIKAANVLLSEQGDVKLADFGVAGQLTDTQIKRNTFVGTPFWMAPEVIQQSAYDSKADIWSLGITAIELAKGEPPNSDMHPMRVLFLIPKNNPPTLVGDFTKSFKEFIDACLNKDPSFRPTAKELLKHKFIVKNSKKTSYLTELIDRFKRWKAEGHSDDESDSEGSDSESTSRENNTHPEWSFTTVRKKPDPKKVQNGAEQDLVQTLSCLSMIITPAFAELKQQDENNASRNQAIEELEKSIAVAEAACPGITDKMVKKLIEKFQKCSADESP
smiles,measurement,setting,value
CCN1CCN(Cc2c(O)ccc3c(=O)c(Oc4ccccc4C(C)C)c(C(F)(F)F)oc23)CC1 [NCGC00100599],IC50,[1],0.339 µM and 0.34 µM
same,"HepG2, IC50 (dash = less than 25% cytotoxicity)",HepG2 cells,– (Indicates compounds with less than 25% cytotoxicity at up to 46 µM)
same,"number of human kinases interacting (Interactions Mapped, 468 Assays Tested)",468 human kinases; 10 μM,16
same,S-Score(35),"468 human kinases; 10 µM, 468 assays",0.03
same,"% Control, ABL1(Q252H)-phosphorylated",[2],9.9 % Control
same,"% Control, CDK4-cyclinD3",CDK4-cyclinD3,15 % Control
same,"% Control, ERBB3",ERBB3,17 % Control
same,"% Control, TRKA",TRKA,22 % Control
same,"% Control, ALK(C1156Y)",ALK(C1156Y),28 % Control
same,"% Control, MYLK",MYLK,31 % Control
same,"% Control, PRKG2",PRKG2,32 % Control
same,"% Control, KIT(A829P)",KIT(A829P),34 % Control
same,"% Control, MST4",MST4,34 % Control

# From publication PMC5390467, “Novel lead structures with both Plasmodium falciparum gametocytocidal and asexual blood stage activity identified from high throughput compound screening” (Malaria Journal, 2017)
